Experimental data reported in patent EP1650209A1, “Griseusin derivatives and their use as antitumor agents” (Oncotest GmbH, priority 2004, dated 2006).
≈ marks a conversion by molar mass, not a printed value.

Experiments:
Test in all cases: Proliferation inhibition of cancer cells (propidium iodide fluorescence)
Type in all cases: cell-based, human
LXFL 529L = details: Homo sapiens, 96 h, LXFL 529L cell line, 4 days, read-out: IC50 value
Method: (§1) Using various human cancer cells in vitro, the concentrations of the test compounds (A, B, C, D, E, F), which inhibit the proliferation of cancer cells by 50% (IC50) and 70% (IC70) were determined. Specifically, each cell line of bladder cancer (BXF 1218L and T-24), glioblastoma (CNXF 498NL), colic cancer (HCT-116 and HT-29), gastric cancer (GXF 251 L), head and neck cancer (HNXF 536L), non small cell lung cancer (LXF 1121L, LXF 289L, LXF 526L, LXF 529L, LXF 629L and H-460), mammary cancer (MAXF 401NL, MCF-7, MDA-231 and MDA-468), melanoma (MEXF 276L, MEXF 394NL, MEXF 462NL, MEXF 514L and MEXF 520L), ovary cancer (OVXF 1619L, OVXF 899L and OVCAR-3), pancreatic cancer (PAXF 1657L and PANC-1), prostate cancer (22Rv1, DU-145, LNCaP and PC3M), pleuramesothelioma (PXF 1752L), renal cancer (RXF 1781 L, RXF 393NL, RXF 486L and RXF 944L), and uterine cancer (UXF 1138L) is added to a 96-well microtiter plate at a density of 3.6-11.2x10^3 cells per well in RPMI-1640 medium containing 10% fetal calf serum and 0.1% gentamicin and incubated for 24 hours. After 24 hours RPMI-1640 medium containing 10% fetal calf serum and 0.1% gentamicin, together with a test compound, is added thereto. Then, this plate is incubated at 37°C for 4 days in a humidified atmosphere of air containing 5% CO2. Thereafter, the cell culture medium with or without drug was replaced by 200 µl of an aqueous PI solution (7 µg/ml propidium iodide). Applying a freeze thaw cycle to permeabilize intact cell walls, staining of DNA was achieved, and the fluorescence of each well was measured using the Cy-tofluor 4000 microplate reader (excitation 530 nm, emission 620 nm), giving a direct relationship to the total cell number. Proliferation inhibition is expressed as test versus untreated control (T/C-value [%]). IC50 and IC70 values were determined by plotting compound concentration versus cell viability.

GXF 251 L = details: Homo sapiens, 96 h, GXF 251L cell line, 4 days, read-out: IC50 value
Method: as §1

UXF 1138L = details: Homo sapiens, 96 h, UXF 1138L cell line, 4 days, read-out: IC50 value
Method: as §1

MAXF 401NL = details: Homo sapiens, 96 h, MAXF 401NL cell line, 4 days, read-out: IC50 value
Method: as §1

MEXF 462NL = details: Homo sapiens, 96 h, MEXF 462NL cell line, 4 days, read-out: IC50 value
Method: as §1

RXF 486L = details: Homo sapiens, 96 h, RXF 486L cell line, 4 days, read-out: IC50 value
Method: as §1

Row | IC50 (LXFL 529L) | IC50 (GXF 251 L) | IC50 (UXF 1138L) | IC50 (MAXF 401NL) | IC50 (MEXF 462NL) | IC50 (RXF 486L) | Compound
1 | 8.95 µg/mL (≈ 22.2 µM) | 3.06 µg/mL (≈ 7.62 µM) | 8.08 µg/mL (≈ 20.1 µM) | 0.345 µg/mL (≈ 0.857 µM) | 1.13 µg/mL (≈ 2.8 µM) | 1.11 µg/mL (≈ 2.77 µM) | CC1CC(O)C(O)C2(O1)OC1CC(=O)OC1C1=C2C(=O)c2c(O)cccc2C1=O (stereo not drawn) [Compound A, deacetylgriseusin A, reference compound]
2 | 3.87 µg/mL (≈ 8.9 µM) | 0.393 µg/mL (≈ 0.905 µM) | 0.377 µg/mL (≈ 0.868 µM) | 0.046 µg/mL (≈ 0.106 µM) | 0.094 µg/mL (≈ 0.216 µM) | 0.288 µg/mL (≈ 0.663 µM) | COC(=O)CC1OC2(OC(C)CC(O)C2O)C2=C(C(=O)c3cccc(O)c3C2=O)C1O (stereo not drawn) [Compound E, 4-hydroxy-deacetylgriseusin B methylester]
3 | 0.158 µg/mL (≈ 0.365 µM) | 0.037 µg/mL (≈ 0.0856 µM) | 0.302 µg/mL (≈ 0.698 µM) | 0.034 µg/mL (≈ 0.0786 µM) | 0.029 µg/mL (≈ 0.0671 µM) | 0.053 µg/mL (≈ 0.123 µM) | COC(=O)CC1OC2(OC(C)CC(=O)C2O)C2=C(C(=O)c3cccc(O)c3C2=O)C1O (stereo not drawn) [Compound F, 4'-dehydro-4-hydroxy-deacetylgriseusin B methylester]
